From PMC10689081 (BMB Reports, 2023) come the findings set out here.

Series [1] can be described thus: Solubility in water. The format is physicochemical. The conditions noted are these: Supplementary Fig. 4.
In series [2] the test system is SARS-CoV-2 Mpro. It is filed as biochemical.
The subject of series [3] is Mpro dimer. The arrangement: species or system SARS-CoV-2.
The mark [4] stands for this setting: Superose-12 10/300, 0.5 ml/min, buffer D pH 7.5, 298 K (Fig. 1B).

Entries after “also recorded” stand apart in the source; their conditions may differ.

On to SGFRKMAFPS [N10], for which, in series [1], the solubility in water result is “soluble in water”. For the same sequence, the “inhibition of Mpro activity (in words)” value in series [2] (N10, 1 μM Mpro, 0-500 μM N10, 10 μM substrate, 298 K) is on record as “also shows inhibitory activity; also recorded: can inhibit the Mpro activity; also recorded: could inhibit the proteolytic activity of Mpro”. In series [2] (sub-millimolar concentrations (Fig. 2B)), the “inhibitory activity of N10 compared with GC376 (in words)” value is “weaker than that of GC376”. The “disruption of dimer conformation (conclusion in words)” value in series [3] is “disrupted the dimer conformation”. In addition, the “shift of Mpro dimer peak on adding N10” value in series [3] (Superose-12 10/300, 0.5 ml/min, 50 mM Tris-HCl pH 7.5, 1 M NaCl, 10% Glycerol, 1 mM DTT, 298 K (Fig. 1B)) is “shifted the Mpro dimer peak into a smaller size; also recorded: from dimer to a smaller size, a presumably monomer”. In series [3] (setting [4]), the “height of the delayed shifted peak compared to the original peak” value is “half-size in height”; the “shape of the peak of Mpro with N10” value was “overlapped shape of two peaks of primary and shoulder; also recorded: overlapped uneven two peaks of primary and shoulder”.
